Reference: ChEMBL document CHEMBL6177960, “Rational design, optimization, and biological evaluation of novel pyrrolo-pyridone derivatives as potent and orally active Cbl-b inhibitors” (Eur J Med Chem, 2025)
Values belong to the compound of their own block, whether it stands above or below them.

Columns and labels:
[1] = Metabolic stability in human hepatocytes assessed as hepatic extraction ratio at 2 uM measured up to 120 mins by LC-MS/MS analysis
[2] = Apparent permeability across basolateral to apical side in human Caco-2 cells at 2 uM incubated for 2 hrs by LC-MS/MS analysis
in vivo [3] = details: male, CD-1(ICR), mouse, po, 10 mg/kg
Description: MRTinfinity in male CD-1(ICR) mouse at 10 mg/kg, po measured after 1440 mins by LC-MS/MS analysis

in vivo [4] = details: male, CD-1(ICR), mouse, po, 10 mg/kg; remark: listed apart in the source
Description: AUClast in male CD-1(ICR) mouse at 10 mg/kg, po measured after 1440 mins by LC-MS/MS analysis

[5] = Metabolic stability in monkey hepatocytes assessed as hepatic extraction ratio at 2 uM measured up to 120 mins by LC-MS/MS analysis; details: rhesus monkey
in vivo [6] = details: male, CD-1(ICR), mouse, iv, 1 mg/kg
Description: AUCinfinity in male CD-1(ICR) mouse at 1 mg/kg, iv measured after 1440 mins by LC-MS/MS analysis

in vitro [7] = details: rat, hepatocytes
[8] = Protein binding in cynomolgus monkey plasma assessed as unbound fraction at 5 uM incubated for 5 hrs by equilibrium dialysis based LC-MS analysis
in vivo [9] = details: male, CD-1(ICR), mouse, iv, 1 mg/kg; remark: listed apart in the source
Description: Clearance in male CD-1(ICR) mouse at 1 mg/kg, iv measured after 1440 mins by LC-MS/MS analysis

[10] = mouse, in vivo, po, 10 mg/kg, 24 h
in vivo [11] = details: male, CD-1(ICR), mouse, po, 10 mg/kg; remark: listed apart in the source
[12] = Inhibition of immunosuppressive activity in PGE2-induced human T cells assessed as increase in IL2 production preincubated with PGE2 for 15 mins followed by compound administration for 60 mins and measured after 48 hrs of anti-human CD28 antibody by ELISA; details: T-cell
[13] = rat, hepatocytes, 2 h, 2 µM
[14] = Plasma protein binding in cynomolgus monkey at 5 uM incubated for 5 hrs by equilibrium dialysis based LC-MS analysis
[15] = Protein binding in human plasma assessed as unbound fraction at 5 uM incubated for 5 hrs by equilibrium dialysis based LC-MS analysis
in vivo [16] = details: male, CD-1(ICR), mouse, iv, 1 mg/kg; remark: listed apart in the source
Description: Apparent volume of distribution in male CD-1(ICR) mouse at 1 mg/kg, iv measured after 1440 mins by LC-MS/MS analysis

in vivo [17] = details: male, CD-1(ICR), mouse, iv, 1 mg/kg; remark: listed apart in the source
Description: MRTinfinity in male CD-1(ICR) mouse at 1 mg/kg, iv measured after 1440 mins by LC-MS/MS analysis

in vivo [18] = details: male, CD-1(ICR), mouse, iv, 1 mg/kg; remark: listed apart in the source
Description: AUClast in male CD-1(ICR) mouse at 1 mg/kg, iv measured after 1440 mins by LC-MS/MS analysis

[19] = Plasma protein binding in Beagle dog at 5 uM incubated for 5 hrs by equilibrium dialysis based LC-MS analysis
[20] = rhesus monkey, hepatocytes, 2 h, 2 µM
in vitro [21] = details: dog, hepatocytes
[22] = molecular target: E3 ubiquitin-protein ligase CBL-B (Homo sapiens, UniProt Q13191); assay: Binding affinity to Cbl-b (unknown origin) assessed as inhibition constant incubated for 60 mins by TR-FRET assay
E3 ubiquitin-protein ligase CBL-B, sequence (Q13191 whole entry): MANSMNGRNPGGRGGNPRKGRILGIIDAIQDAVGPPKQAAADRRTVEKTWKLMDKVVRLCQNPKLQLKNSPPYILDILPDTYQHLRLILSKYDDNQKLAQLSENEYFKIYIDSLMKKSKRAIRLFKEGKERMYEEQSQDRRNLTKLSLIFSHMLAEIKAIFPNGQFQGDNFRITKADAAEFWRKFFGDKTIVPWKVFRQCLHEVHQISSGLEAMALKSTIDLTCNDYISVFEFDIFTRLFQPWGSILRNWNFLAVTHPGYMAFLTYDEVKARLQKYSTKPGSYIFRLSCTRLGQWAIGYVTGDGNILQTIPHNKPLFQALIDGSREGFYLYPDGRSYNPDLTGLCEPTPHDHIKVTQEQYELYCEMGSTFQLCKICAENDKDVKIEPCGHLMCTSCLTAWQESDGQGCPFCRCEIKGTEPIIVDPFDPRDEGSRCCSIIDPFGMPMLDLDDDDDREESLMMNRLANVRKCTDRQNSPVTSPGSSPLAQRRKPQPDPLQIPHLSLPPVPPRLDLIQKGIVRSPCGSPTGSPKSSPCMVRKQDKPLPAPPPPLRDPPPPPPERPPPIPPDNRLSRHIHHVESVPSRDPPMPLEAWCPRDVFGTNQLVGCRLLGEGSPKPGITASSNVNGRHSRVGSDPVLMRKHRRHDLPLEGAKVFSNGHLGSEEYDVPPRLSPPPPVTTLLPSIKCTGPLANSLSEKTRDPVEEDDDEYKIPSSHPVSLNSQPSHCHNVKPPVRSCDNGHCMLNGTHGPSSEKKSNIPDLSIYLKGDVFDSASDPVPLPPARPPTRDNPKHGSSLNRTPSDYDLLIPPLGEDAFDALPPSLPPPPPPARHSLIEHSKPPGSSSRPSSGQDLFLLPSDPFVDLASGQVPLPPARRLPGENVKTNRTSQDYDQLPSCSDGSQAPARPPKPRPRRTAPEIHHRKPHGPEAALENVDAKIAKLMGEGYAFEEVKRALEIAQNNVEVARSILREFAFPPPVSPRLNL

[23] = mouse, in vivo, iv, 1 mg/kg, 24 h
in vivo [24] = details: male, CD-1(ICR), mouse, iv, 1 mg/kg; remark: listed apart in the source
Description: Volume of distribution at steady state in male CD-1(ICR) mouse at 1 mg/kg, iv measured after 1440 mins by LC-MS/MS analysis

[25] = Protein binding in CD-1 mouse plasma assessed as unbound fraction at 5 uM incubated for 5 hrs by equilibrium dialysis based LC-MS analysis
[26] = human, hepatocytes, 2 h, 2 µM
[27] = Plasma protein binding in Sprague-Dawley rat at 5 uM incubated for 5 hrs by equilibrium dialysis based LC-MS analysis
[28] = Metabolic stability in dog hepatocytes assessed as hepatic extraction ratio at 2 uM measured up to 120 mins by LC-MS/MS analysis
[29] = Inhibition of immunosuppressive activity in PGE2-induced human T cells assessed as increase in IFNgamma production preincubated with PGE2 for 15 mins followed by compound administration for 60 mins and measured after 48 hrs of anti-human CD28 antibody by ELISA; details: T-cell
in vitro [30] = details: dog, hepatocytes; remark: listed apart in the source
in vivo [31] = details: male, CD-1(ICR), mouse, iv, 1 mg/kg; remark: listed apart in the source
Description: Half-life in male CD-1(ICR) mouse at 1 mg/kg, iv measured after 1440 mins by LC-MS/MS analysis

[32] = Protein binding in Beagle dog plasma assessed as unbound fraction at 5 uM incubated for 5 hrs by equilibrium dialysis based LC-MS analysis
in vivo [33] = details: male, CD-1(ICR), mouse, po, 10 mg/kg; remark: listed apart in the source
Description: Half-life in male CD-1(ICR) mouse at 10 mg/kg, po measured after 1440 mins by LC-MS/MS analysis

in vitro [34] = details: human, hepatocytes
[35] = Protein binding in Sprague-Dawley rat plasma assessed as unbound fraction at 5 uM incubated for 5 hrs by equilibrium dialysis based LC-MS analysis
[36] = Metabolic stability in mouse hepatocytes assessed as hepatic extraction ratio at 2 uM measured up to 120 mins by LC-MS/MS analysis
in vivo [37] = details: male, CD-1(ICR), mouse, po, 10 mg/kg; remark: listed apart in the source
Description: AUCinfinity in male CD-1(ICR) mouse at 10 mg/kg, po measured after 1440 mins by LC-MS/MS analysis

in vivo [38] = details: male, CD-1(ICR), mouse, po, 10 mg/kg; remark: listed apart in the source
in vivo [39] = details: male, CD-1(ICR), mouse, po, 10 mg/kg; remark: listed apart in the source
[40] = Apparent permeability across basolateral to apical side in human Caco-2 cells assessed as drug recovery at 2 uM incubated for 2 hrs by LC-MS/MS analysis
in vivo [41] = details: male, CD-1(ICR), mouse, iv, 1 mg/kg; remark: listed apart in the source
Description: C0 in male CD-1(ICR) mouse at 1 mg/kg, iv measured after 1440 mins by LC-MS/MS analysis

in vitro [42] = details: mouse, hepatocytes
[43] = Toxicity in female BALB/C mouse model implanted with mouse CT26 cells assessed as effect on body weight at 30 mg/kg, po administered via gavage once daily and measured after 14 days; details: in vivo, 336 h
[44] = Plasma protein binding in human at 5 uM incubated for 5 hrs by equilibrium dialysis based LC-MS analysis
[45] = Plasma protein binding in CD-1 mouse at 5 uM incubated for 5 hrs by equilibrium dialysis based LC-MS analysis
[46] = Apparent permeability across apical to basolateral side in human Caco-2 cells assessed as drug recovery at 2 uM incubated for 2 hrs by LC-MS/MS analysis
[47] = Apparent permeability across apical to basolateral side in human Caco-2 cells at 2 uM incubated for 2 hrs by LC-MS/MS analysis
[48] = Inhibition of immunosuppressive activity in PGE2-induced human T cells assessed as increase in cell proliferation preincubated with PGE2 for 15 mins followed by compound administration for 60 mins and measured after 72 hrs of anti-human CD28 antibody by flow cytometric analysis
in vitro [49] = details: rhesus monkey, hepatocytes
[50] = Metabolic stability in rat hepatocytes assessed as hepatic extraction ratio at 2 uM measured up to 120 mins by LC-MS/MS analysis
[51] = mouse, hepatocytes, 2 h, 2 µM
in vitro [52] = details: human, Caco-2
CT26 [53] = assay: Antitumor activity against mouse CT26 cells implanted in female BALB/C mouse model assessed as tumor growth inhibition at 50 mg/kg, po administered via gavage once daily and measured after 14 days relative to control; details: 336 h, read-out: TGI
CT26 [54] = assay: Antitumor activity against mouse CT26 cells implanted in female BALB/C mouse model assessed as tumor growth inhibition at 30 mg/kg, po administered via gavage once daily and measured after 14 days relative to control; details: 336 h, read-out: TGI
[55] = Toxicity in female BALB/C mouse model implanted with mouse CT26 cells assessed as body weight gain at 10 mg/kg, po administered via gavage once daily and measured after 14 days; assay type: organism-based; details: in vivo, 336 h, time 14 day
CT26 [56] = assay: Antitumor activity against mouse CT26 cells implanted in female BALB/C mouse model assessed as tumor growth inhibition at 10 mg/kg, po administered via gavage once daily and measured after 14 days relative to control; details: 336 h, read-out: TGI
4T1 = assay: Antitumor activity against mouse 4T1 cells implanted in female BALB/C mouse model assessed as tumor growth inhibition at 30 mg/kg, po relative to control; details: 4T1, po, read-out: TGI

hepatic extraction ratio at 2 h, 2 µM [1]: 0.7
Papp B→A at 2 h, 2 µM [2]: 35.8 ×10⁻⁶ cm/s
MRT inf at 24 h (in vivo [3]): 103 min
AUC(0-t) at 24 h (in vivo [4]): 661 ng·h/mL
hepatic extraction ratio at 2 h, 2 µM [5]: 0.9
AUC(0-inf) at 24 h (in vivo [6]): 281 ng·h/mL
half-life at 2 h, 2 µM (in vitro [7]): 39.3 min
fraction unbound at 5 h, 5 µM [8]: 0.044
clearance at 24 h (in vivo [9]): 59.7 mL/min/kg
%AUCextra [10]: 4.76%
Cmax at 24 h (in vivo [11]): 629 ng/mL
EC50 [12]: 894 nM
CLH [13]: 25.2 mL/min/kg
fraction unbound at 5 h, 5 µM [14]: 0.044
fraction unbound at 5 h, 5 µM [15]: 0.0522
Vd at 24 h (in vivo [16]): 1.62 L/kg
MRT inf at 24 h (in vivo [17]): 26.4 min
AUC(0-t) at 24 h (in vivo [18]): 277 ng·h/mL
fraction unbound at 5 h, 5 µM [19]: 0.078
CLH [20]: 37.5 mL/min/kg
half-life at 2 h, 2 µM (in vitro [21]): 5.2 min
Ki [22]: 1.84 nM
%AUCextra [23]: 1.18%
Vd at 24 h (in vivo [24]): 1.55 L/kg
fraction unbound at 5 h, 5 µM [25]: 0.0434
CLH [26]: 14.3 mL/min/kg
fraction unbound at 5 h, 5 µM [27]: 0.0736
hepatic extraction ratio at 2 h, 2 µM [28]: 0.9
EC50 [29]: 892 nM
CLint scaled at 2 h, 2 µM (in vitro [30]): 50.8 mL/min/kg
half-life at 24 h (in vivo [31]): 18.6 min
fraction unbound at 5 h, 5 µM [32]: 0.078
half-life at 24 h (in vivo [33]): 161 min
half-life at 2 h, 2 µM (in vitro [34]): 46 min
fraction unbound at 5 h, 5 µM [35]: 0.0736
hepatic extraction ratio at 2 h, 2 µM [36]: 0.9
AUC(0-inf) at 24 h (in vivo [37]): 690 ng·h/mL
Tmax at 24 h (in vivo [38]): 19.8 min
bioavailability at 24 h (in vivo [39]): 24.6%
recovery at 2 h, 2 µM [40]: 81.3%
C0 at 24 h (in vivo [41]): 572 ng/mL
half-life at 2 h, 2 µM (in vitro [42]): 10.4 min
fraction unbound at 5 h, 5 µM [44]: 0.0522
fraction unbound at 5 h, 5 µM [45]: 0.0434
recovery at 2 h, 2 µM [46]: 101%
Papp A→B at 2 h, 2 µM [47]: 1.98 ×10⁻⁶ cm/s
half-life at 2 h, 2 µM (in vitro [49]): 9.3 min
hepatic extraction ratio at 2 h, 2 µM [50]: 0.8
CLH [51]: 79.8 mL/min/kg
efflux ratio at 2 h, 2 µM (in vitro [52]): 18
Compound: C[C@H]1CCCN(Cc2cc3c(c(C(F)(F)F)c2)CN(c2cccc([C@]4(c5nncn5C)C[C@@H](C)C4)c2)C3=O)C1
Activity [43]: Non-toxic
EC50 [48]: 26.8 nM

MRT inf at 24 h (in vivo [3]): 253 min
AUC(0-t) at 24 h (in vivo [4]): 243 ng·h/mL
AUC(0-inf) at 24 h (in vivo [6]): 205 ng·h/mL
clearance at 24 h (in vivo [9]): 82.1 mL/min/kg
%AUCextra [10]: 14.2%
Cmax at 24 h (in vivo [11]): 77.9 ng/mL
Vd at 24 h (in vivo [16]): 4.82 L/kg
MRT inf at 24 h (in vivo [17]): 39.6 min
AUC(0-t) at 24 h (in vivo [18]): 202 ng·h/mL
%AUCextra [23]: 1.18%
Vd at 24 h (in vivo [24]): 3.19 L/kg
half-life at 24 h (in vivo [31]): 40.8 min
half-life at 24 h (in vivo [33]): 140 min
AUC(0-inf) at 24 h (in vivo [37]): 293 ng·h/mL
Tmax at 24 h (in vivo [38]): 120 min
bioavailability at 24 h (in vivo [39]): 27.2%
C0 at 24 h (in vivo [41]): 395 ng/mL
Compound: C[C@H]1CCCN(Cc2cc3c(C4CC4)cn(-c4cccc([C@]5(c6nncn6C)C[C@@H](C)C5)c4)c(=O)c3[nH]2)C1
inhibition in vivo at 50 mg/kg (CT26 [53]): 51%

MRT inf at 24 h (in vivo [3]): 89.4 min
AUC(0-t) at 24 h (in vivo [4]): 789 ng·h/mL
AUC(0-inf) at 24 h (in vivo [6]): 292 ng·h/mL
half-life at 2 h, 2 µM (in vitro [7]): 40.7 min
fraction unbound at 5 h, 5 µM [8]: 0.0179
clearance at 24 h (in vivo [9]): 57.8 mL/min/kg
%AUCextra [10]: 0.94%
Cmax at 24 h (in vivo [11]): 480 ng/mL
EC50 [12]: 65.7 nM
fraction unbound at 5 h, 5 µM [14]: 0.0179
fraction unbound at 5 h, 5 µM [15]: 0.0379
Vd at 24 h (in vivo [16]): 4.66 L/kg
MRT inf at 24 h (in vivo [17]): 60.6 min
AUC(0-t) at 24 h (in vivo [18]): 289 ng·h/mL
fraction unbound at 5 h, 5 µM [19]: 0.0394
half-life at 2 h, 2 µM (in vitro [21]): 24.1 min
%AUCextra [23]: 1.2%
Vd at 24 h (in vivo [24]): 2.91 L/kg
fraction unbound at 5 h, 5 µM [25]: 0.0217
fraction unbound at 5 h, 5 µM [27]: 0.0419
EC50 [29]: 170 nM
CLint scaled at 2 h, 2 µM (in vitro [30]): 39.4 mL/min/kg
half-life at 24 h (in vivo [31]): 55.7 min
fraction unbound at 5 h, 5 µM [32]: 0.0394
half-life at 24 h (in vivo [33]): 69 min
half-life at 2 h, 2 µM (in vitro [34]): 81.8 min
fraction unbound at 5 h, 5 µM [35]: 0.0419
AUC(0-inf) at 24 h (in vivo [37]): 796 ng·h/mL
Tmax at 24 h (in vivo [38]): 21.6 min
bioavailability at 24 h (in vivo [39]): 27.2%
C0 at 24 h (in vivo [41]): 406 ng/mL
half-life at 2 h, 2 µM (in vitro [42]): 14.3 min
fraction unbound at 5 h, 5 µM [44]: 0.0379
fraction unbound at 5 h, 5 µM [45]: 0.0217
half-life at 2 h, 2 µM (in vitro [49]): 12.2 min
Compound: C[C@H]1CCCN(Cc2cc3c(C(F)(F)F)cn(-c4cccc([C@]5(c6nncn6C)C[C@@H](C)C5)c4)c(=O)c3[nH]2)C1
inhibition in vivo at 30 mg/kg (CT26 [54]): 56.1%
Activity [55]: Toxic
inhibition in vivo at 10 mg/kg (CT26 [56]): 12.5%
inhibition in vivo at 30 mg/kg (4T1): 31.3%
Activity [43]: Non-toxic
EC50 [48]: 1.4 nM
